# Values quoted from earlier work, collected in patent publication US11497806B2, “Immunization agents and methods of use” (priority 2014, dated 2022).
# Read-outs that look alike come from different tables or passages of the source.
# What was measured:
# [1] = target: T1, transactivator (Homo sapiens, UniProt P06401); conditions: rats
# T1 construct: host or cells: rat (in vivo)
# [2] = tested on: luciferase target gene; conditions: heat treatment in the presence but not in the absence of mifepristone; FIG. 2
# T1 sequence (P06401 640-891, added parts left off): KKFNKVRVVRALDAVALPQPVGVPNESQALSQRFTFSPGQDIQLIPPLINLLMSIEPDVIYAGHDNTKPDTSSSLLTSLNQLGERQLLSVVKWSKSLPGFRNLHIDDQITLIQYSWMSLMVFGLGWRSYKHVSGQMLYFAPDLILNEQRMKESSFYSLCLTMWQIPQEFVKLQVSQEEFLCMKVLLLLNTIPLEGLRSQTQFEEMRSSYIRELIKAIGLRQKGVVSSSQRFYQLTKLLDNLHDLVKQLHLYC
smiles,measurement,setting,value
CC#C[C@]1(O)CC[C@H]2[C@@H]3CCC4=CC(=O)CCC4=C3[C@@H](c3ccc(N(C)C)cc3)C[C@@]21C [mifepristone],Amount reaching an effective concentration,[1]; i.p.,5 µg/kg
same,Amount reaching an effective concentration,[1]; orally,about 10 μg/kg
same,Target gene expression after heat treatment,[2],resulted in activation of target gene expression
